In PMC6308302, “Identification of Pharmacokinetic Markers for Guanxin Danshen Drop Pills in Rats by Combination of Pharmacokinetics, Systems Pharmacology, and Pharmacodynamic Assays” (Frontiers in Pharmacology, 2018):
Entries after “also recorded” stand apart in the source; their conditions may differ. Marks after values point to notes of the source that are not given here.

Assays:
[1] = Aqueous solubility test (vortexing in water); type: physicochemical
Method: Aqueous solubility (S) test of the 17 ingredients was performed by vortexing 10 mg of each ingredient in […] water in a test tube at ambient temperature and 1 atm. After vortexing for 5 min, if the solution is clear, the tested object will be considered as soluble in water. In silico assessment of the physicochemical properties governing permeation and intestinal absorption was carried out for the 17 ingredients studied. Theory aqueous solubility (S) was calculated with ALOGPS 2.1 online software via the Virtual Computational Chemistry Laboratory service (Chemoinformatics Group, Neuherberg, Germany) (VCCLAB^1). The octanol–water partition coefficient (cLogP), the total hydrogen bond count (donors and acceptors), and topological polar surface area (TPSA) were determined using the Molinspiration Property Calculator (Molinspiration Cheminformatics, Bratislava, Slovak Republic^2). Lipinski’s rule of 5 was used to predict the permeability of the compound ([Lipinski et al., 2001]).

Caco-2 cell monolayers = details: ref Lu et al., 2008, Liu et al., 2009, Hu et al., 2014, Bowles et al., 2017, cited from earlier work; for Papp(apical→basolateral) / Papp(basolateral→apical): Caco-2 cell monolayers, from literature; for apparent permeability in Caco-2 cell monolayers: previous results
[2] = Stability tests in rat plasma (QC samples, HPLC-MS); details: n=5
Excerpt: Accuracy and precision were expressed by relative error (RE) and coefficient of variance (RSD), respectively.

[3] = Multiple component PK study in rat plasma after p.o. GDDP (HPLC-MS); details: for determination in rat plasma at the planned successive PK time points / detection in rat plasma: GDDP 0.8 g/kg p.o.; for determination in rat plasma at the planned successive PK time points: 5, 10, 15, 30, 45, 60, and 120 min, LOQ 1.0–1.4 ng/mL; for detection in rat plasma: at 5, 10, 15, 30, 45, or 60 min, LOD 0.5–0.7 ng/mL; for AUC(0-inf) / AUC(0-t) / MRT inf / MRT last / Tmax / Cmax / half-life: Sprague-Dawley, rat, plasma, po
[4] = test system: isoprenaline-induced MI in mice; test: In vivo anti-MI study: isoprenaline-induced myocardial injury (ECG, H&E histology); details: for Histopathology of heart tissue (H&E): 40 mg/kg; for ECG (lead II) findings on the fifth day of the trial: 40 mg/kg p.o., isoprenaline 5 mg/kg on days 4 and 5
[5] = 24h in auto-sampler vials, spiked 2 ng/mL
[6] = 24h in auto-sampler vials, spiked 400 ng/mL
[7] = 24h in auto-sampler vials, spiked 1600 ng/mL
[8] = Placing plasma for 6h at 4°C, spiked 2 ng/mL
[9] = Placing plasma for 6h at 4°C, spiked 400 ng/mL
[10] = Placing plasma for 6h at 4°C, spiked 1600 ng/mL
[11] = three freeze-thaw cycles, rat plasma, spiked 2 ng/mL
[12] = three freeze-thaw cycles, rat plasma, spiked 400 ng/mL
[13] = three freeze-thaw cycles, rat plasma, spiked 1600 ng/mL
[14] = 0.4 g/kg, Cmax, rat plasma, GDDP 0.4 g/kg p.o. (Low dose group), n=3
[15] = 0.4 g/kg, t1/2 β, rat plasma, GDDP 0.4 g/kg p.o. (Low dose group), n=3
[16] = 0.8 g/kg, Cmax (high / low plasma drug concentrations), rats, GDDP 0.4 and 0.8 g/kg p.o., classification
[17] = 0.8 g/kg, Cmax, rat plasma, GDDP 0.8 g/kg p.o. (High dose group), n=3
[18] = 0.8 g/kg, t1/2 β (fast / slow elimination type), rats, GDDP 0.4 and 0.8 g/kg p.o., classification
[19] = 0.8 g/kg, t1/2 β, rat plasma, GDDP 0.8 g/kg p.o. (High dose group), n=3
[20] = rat plasma, GDDP 0.4 g/kg p.o. (Low dose group), n=3
[21] = rat plasma, GDDP 0.8 g/kg p.o. (High dose group), n=3
[22] = 40 mg/kg p.o. for 7 days, isoprenaline-induced MI

CC(C)=CCC[C@](C)(O[C@@H]1O[C@H](CO[C@@H]2O[C@H](CO)[C@@H](O)[C@H](O)[C@H]2O)[C@@H](O)[C@H](O)[C@H]1O)[C@H]1CC[C@]2(C)[C@@H]1[C@H](O)C[C@@H]1[C@@]3(C)CC[C@H](O[C@@H]4O[C@H](CO)[C@@H](O)[C@H](O)[C@H]4O[C@@H]4O[C@H](CO)[C@@H](O)[C@H](O)[C@H]4O)C(C)(C)[C@@H]3CC[C@]12C [Rb1, ginsenoside Rb1]
solubility at 5 min ([1]; thermodynamic from solid, determined, water, 25 °C, 1 atm): > 10000 µg/mL | Papp(apical→basolateral) (Caco-2 cell monolayers): > 0.1^c ×10^-6 cm/s | Papp(basolateral→apical) (Caco-2 cell monolayers): > 0.1^c ×10^-6 cm/s | apparent permeability in Caco-2 cell monolayers (Caco-2 cell monolayers): > 10^-7 cm/s | Stability: Measured [2, 5]: 1.97 ± 0.29 ng/mL | Stability: RE [2, 5]: -1.62% | Stability: Measured [2, 6]: 386.10 ± 20.53 ng/mL | Stability: RE [2, 6]: -3.47% | Stability: Measured [2, 7]: 1540.64 ± 55.53 ng/mL | Stability: RE [2, 7]: -3.71% | Stability: Measured [2, 8]: 1.66 ± 0.17 ng/mL | Stability: RE [2, 8]: -16.86% | Stability: Measured [2, 9]: 376.87 ± 18.97 ng/mL | Stability: RE [2, 9]: -5.78% | Stability: Measured [2, 10]: 1647.48 ± 31.81 ng/mL | Stability: RE [2, 10]: 2.97% | Stability: Measured [2, 11]: 1.75 ± 0.23 ng/mL | Stability: RE [2, 11]: -12.42% | Stability: Measured [2, 12]: 394.28 ± 21.32 ng/mL | Stability: RE [2, 12]: -1.43% | Stability: Measured [2, 13]: 1601.88 ± 26.56 ng/mL | Stability: RE [2, 13]: 0.12% | determination in rat plasma at the planned successive PK time points [3]: could be determined | detection in rat plasma [3]: could be detected | AUC(0-inf) ([3]; 0.4 g/kg): 1930 ± 1300 ng·h/mL | AUC(0-t) ([3]; 0.4 g/kg): 818 ± 272 ng·h/mL | MRT inf ([3]; 0.4 g/kg): 36.6 ± 17.7 h | MRT last ([3]; 0.4 g/kg): 11.42 ± 0.11 h | Tmax ([3]; 0.4 g/kg): 3.25 ± 3.89 h | Cmax [3, 14]: 57 ± 27.3 ng/mL | half-life [3, 15]: 22.9 ± 12.4 h | AUC(0-inf) ([3]; 0.8 g/kg): 1350 ± 486 ng·h/mL | AUC(0-t) ([3]; 0.8 g/kg): 998 ± 200 ng·h/mL | MRT inf ([3]; 0.8 g/kg): 17.1 ± 4.98 h | MRT last ([3]; 0.8 g/kg): 9.63 ± 0.6 h | Tmax ([3]; 0.8 g/kg): 3.34 ± 3.05 h | Cmax [3, 16]: > 20 ng/mL | Cmax [3, 17]: 80.3 ± 19.2 ng/mL | half-life [3, 18]: > 2.6 h | half-life [3, 19]: 10.8 ± 4.03 h | Cltot [3, 20]: 18 ± 12 mL/min/kg | Cltot [3, 21]: 43.2 ± 13.5 mL/min/kg | systematic exposure (AUC0-∞), times higher than those of CTS and DHTS ([3]; rats, p.o. GDDP, P < 0.05): 84–1137 times | systematic exposure (AUC0-∞), times higher than those of Rd, R1, Rg1, TS IIA, and TS I ([3]; rats, p.o. GDDP, P < 0.05): 3.5–30 times | anti-MI effect (overall conclusion) [4, 22]: favorable anti-MI effect | Histopathology of heart tissue (H&E) [4, 22]: less severe histological damage with mild cell distortion, edema, and good continuity with adjacent myofibrils | ECG (lead II) findings on the fifth day of the trial [4]: T waves reversed or decreased

C[C@H]1COC2=C1C(=O)C(=O)c1c2ccc2c1CCCC2(C)C [CTS, cryptotanshinone]
solubility in water (in words) ([1]; water at 25 °C): insoluble | Papp(apical→basolateral) (Caco-2 cell monolayers): 1.59^d ×10^-6 cm/s | Papp(basolateral→apical) (Caco-2 cell monolayers): 8.36^d ×10^-6 cm/s | apparent permeability in Caco-2 cell monolayers (Caco-2 cell monolayers): ≥ 10^-6 cm/s | Stability: Measured [2, 5]: 1.79 ± 0.36 ng/mL | Stability: RE [2, 5]: -10.32% | Stability: Measured [2, 6]: 478.43 ± 27.22 ng/mL | Stability: RE [2, 6]: 19.61% | Stability: Measured [2, 7]: 1852.38 ± 164.86 ng/mL | Stability: RE [2, 7]: 15.77% | Stability: Measured [2, 8]: 1.79 ± 0.26 ng/mL | Stability: RE [2, 8]: -10.47% | Stability: Measured [2, 9]: 438.37 ± 50.69 ng/mL | Stability: RE [2, 9]: 9.59% | Stability: Measured [2, 10]: 1890.21 ± 223.22 ng/mL | Stability: RE [2, 10]: 18.14% | Stability: Measured [2, 11]: 1.62 ± 0.22 ng/mL | Stability: RE [2, 11]: -19.00% | Stability: Measured [2, 12]: 457.79 ± 26.04 ng/mL | Stability: RE [2, 12]: 14.45% | Stability: Measured [2, 13]: 1871.43 ± 321.89 ng/mL | Stability: RE [2, 13]: 16.96% | determination in rat plasma at the planned successive PK time points [3]: could be determined | detection in rat plasma [3]: could be detected | AUC(0-inf) ([3]; 0.4 g/kg): 1.72 ± 1.24 ng·h/mL | AUC(0-t) ([3]; 0.4 g/kg): 0.84 ± 0.03 ng·h/mL | MRT inf ([3]; 0.4 g/kg): 0.69 ± 0.66 h | MRT last ([3]; 0.4 g/kg): 0.23 ± 0.03 h | Tmax ([3]; 0.4 g/kg): 0.25 h | Cmax [3, 14]: 2.33 ± 0.49 ng/mL | half-life [3, 15]: 0.45 ± 0.45 h | AUC(0-inf) ([3]; 0.8 g/kg): 3.24 ± 1.09 ng·h/mL | AUC(0-t) ([3]; 0.8 g/kg): 2.76 ± 1.18 ng·h/mL | MRT inf ([3]; 0.8 g/kg): 0.84 ± 0.3 h | MRT last ([3]; 0.8 g/kg): 0.56 ± 0.22 h | Tmax ([3]; 0.8 g/kg): 0.25 h | Cmax [3, 16]: < 10 ng/mL | Cmax [3, 17]: 4.09 ± 1.47 ng/mL | half-life [3, 18]: < 2 h | half-life [3, 19]: 0.57 ± 0.26 h | Cltot [3, 20]: 3485.3 ± 2517.8 mL/min/kg | Cltot [3, 21]: 2924 ± 826.2 mL/min/kg | Histopathology of heart tissue (H&E) [4, 22]: remarkably severe histological damage with extensive myocardial lysis and architecture wrecking; also recorded: extremely severe histological damage with extensive myocardial lysis and architecture wrecking | ECG (lead II) findings on the fifth day of the trial [4]: T waves reversed or decreased
